Reference: patent US8461328B2, “Tricyclic heterocyclic compounds, compositions and methods of use thereof” (Genentech, Inc., priority 2010, dated 2013)

Legend:
Assay type in all cases: biochemical
JAK1 = target: T1, JAK1 (Homo sapiens, UniProt P23458); assay: JAK1 inhibition (Table 4); details: read-out: JAK1 Ki
T1 construct: made in house; host or cells: SF9 insect cells (baculovirus)

JAK2 = target: T2, JAK2 (Homo sapiens, UniProt O60674); assay: JAK2 inhibition (Table 4); details: read-out: JAK2 Ki
T2 construct: made in house; host or cells: SF9 insect cells (baculovirus)

JAK3 = target: T3, JAK3 (Homo sapiens, UniProt P52333); assay: JAK3 inhibition (Table 4); details: read-out: JAK3 Ki
T3 construct: made in house; host or cells: SF9 insect cells (baculovirus)

TYK2 = target: T4, TYK2 (Homo sapiens, UniProt P29597); assay: TYK2 inhibition (Table 4)
T4 construct: made in house; host or cells: SF9 insect cells (baculovirus)
T4 sequence (P29597 873-1187): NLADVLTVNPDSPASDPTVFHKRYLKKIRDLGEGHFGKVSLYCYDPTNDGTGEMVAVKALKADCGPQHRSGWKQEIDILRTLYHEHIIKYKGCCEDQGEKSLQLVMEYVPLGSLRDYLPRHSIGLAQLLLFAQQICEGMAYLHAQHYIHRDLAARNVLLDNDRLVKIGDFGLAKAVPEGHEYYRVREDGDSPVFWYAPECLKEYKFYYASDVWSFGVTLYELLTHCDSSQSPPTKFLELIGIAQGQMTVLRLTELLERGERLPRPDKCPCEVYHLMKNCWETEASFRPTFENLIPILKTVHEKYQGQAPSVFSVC

T1 sequence (P23458 852-1154): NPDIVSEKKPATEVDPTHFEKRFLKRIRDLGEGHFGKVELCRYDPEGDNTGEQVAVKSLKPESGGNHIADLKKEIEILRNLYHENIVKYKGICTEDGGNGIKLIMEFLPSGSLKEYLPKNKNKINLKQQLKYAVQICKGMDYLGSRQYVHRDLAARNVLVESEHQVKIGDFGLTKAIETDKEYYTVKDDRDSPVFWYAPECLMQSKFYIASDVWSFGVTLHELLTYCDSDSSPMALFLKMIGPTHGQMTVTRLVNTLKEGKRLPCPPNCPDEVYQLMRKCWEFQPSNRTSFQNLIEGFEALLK
T2 sequence (O60674 812-1132): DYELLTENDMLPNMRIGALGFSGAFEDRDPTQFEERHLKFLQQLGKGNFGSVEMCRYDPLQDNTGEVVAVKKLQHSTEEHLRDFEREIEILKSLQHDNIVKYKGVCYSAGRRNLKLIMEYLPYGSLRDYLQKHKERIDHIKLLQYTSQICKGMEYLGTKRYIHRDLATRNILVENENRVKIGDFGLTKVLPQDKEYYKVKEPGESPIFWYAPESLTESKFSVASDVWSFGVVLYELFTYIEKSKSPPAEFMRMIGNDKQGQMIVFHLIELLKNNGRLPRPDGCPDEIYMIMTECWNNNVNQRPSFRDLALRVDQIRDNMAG
T3 sequence (P52333 783-1124): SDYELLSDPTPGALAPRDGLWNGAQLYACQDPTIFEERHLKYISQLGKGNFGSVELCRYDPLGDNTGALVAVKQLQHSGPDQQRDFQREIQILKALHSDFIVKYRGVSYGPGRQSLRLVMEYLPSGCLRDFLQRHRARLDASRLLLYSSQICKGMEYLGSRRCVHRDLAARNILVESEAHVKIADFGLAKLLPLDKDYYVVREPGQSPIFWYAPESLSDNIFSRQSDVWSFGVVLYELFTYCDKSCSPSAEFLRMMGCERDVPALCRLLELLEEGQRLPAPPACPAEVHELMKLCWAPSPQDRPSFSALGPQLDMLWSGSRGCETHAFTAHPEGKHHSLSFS

Row | SMILES | Ki (JAK1) | Ki (JAK2) | Ki (JAK3) | Ki (TYK2)
1 | C[C@@H](O)c1nc2cnc3[nH]ccc3c2n1[C@@H]1CCCN(C(=O)C2CCCC2)C1 [Example 788, Cyclopentyl-{(R)-3-[2-((R)-1-hydroxy-ethyl)-6H-1,3,5,6-tetraaza-as-indacen-1-yl]-piperidin-1-yl}-methanone] | 67.1 nM | 792 nM | 844 nM | 716 nM
2 | CC(O)c1nc2cnc3[nH]ccc3c2n1C1CCCN(C(=O)C2CC2(F)F)C1 (centres unmarked) [Example 790, (2,2-Difluoro-cyclopropyl)-{3-[2-(1-hydroxy-ethyl)-6H-1,3,5,6-tetraaza-as-indacen-1-yl]-piperidin-1-yl}-methanone] | 79.9 nM | 740 nM | 884 nM | 587 nM
3 | C[C@@H](O)c1nc2cnc3[nH]ccc3c2n1[C@@H]1CCCN(C(=O)CC2CC2)C1 [Example 791, 2-Cyclopropyl-1-{(R)-3-[2-((R)-1-hydroxy-ethyl)-6H-1,3,5,6-tetraaza-as-indacen-1-yl]-piperidin-1-yl}-ethanone] | 82.4 nM | 1080 nM | 822 nM | 814 nM
4 | C[C@@H](O)c1nc2cnc3[nH]ccc3c2n1[C@@H]1CCCN(C(=O)C2CCC2)C1 [Example 792, Cyclobutyl-{(R)-3-[2-((R)-1-hydroxy-ethyl)-6H-1,3,5,6-tetraaza-as-indacen-1-yl]-piperidin-1-yl}-methanone] | 76.4 nM | 260 nM | 1060 nM | 448 nM
5 | CC(C)CC(=O)N1CCC[C@@H](n2c([C@@H](C)O)nc3cnc4[nH]ccc4c32)C1 [Example 793, 1-{(R)-3-[2-((R)-1-Hydroxy-ethyl)-6H-1,3,5,6-tetraaza-as-indacen-1-yl]-piperidin-1-yl}-3-methyl-butan-1-one] | 267 nM | 2280 nM | 2360 nM | 2010 nM
6 | C[C@@H](O)c1nc2cnc3[nH]ccc3c2n1[C@@H]1CCCN(C(=O)C2CC2)C1 [Example 794, Cyclopropyl-{(R)-3-[2-((R)-1-hydroxy-ethyl)-6H-1,3,5,6-tetraaza-as-indacen-1-yl]-piperidin-1-yl}-methanone] | 116 nM | 886 nM | 1230 nM | 420 nM
7 | CCC(=O)N1CCC[C@@H](n2c([C@@H](C)O)nc3cnc4[nH]ccc4c32)C1 [Example 795, 1-{(R)-3-[2-((R)-1-Hydroxy-ethyl)-6H-1,3,5,6-tetraaza-as-indacen-1-yl]-piperidin-1-yl}-propan-1-one] | 221 nM | 876 nM | 1370 nM | 698 nM
8 | CC(O)c1nc2cnc3[nH]ccc3c2n1C1CCCN(C(=O)C2CC2C)C1 (centres unmarked) [Example 796, {3-[2-(1-Hydroxy-ethyl)-6H-1,3,5,6-tetraaza-as-indacen-1-yl]-piperidin-1-yl}-(2-methyl-cyclopropyl)-methanone] | 55 nM | 746 nM | 884 nM | 617 nM
9 | CCOC(=O)N1CCC[C@@H](n2c([C@@H](C)O)nc3cnc4[nH]ccc4c32)C1 [Example 800, (R)-3-[2-((R)-1-Hydroxy-ethyl)-6H-1,3,5,6-tetraaza-as-indacen-1-yl]-piperidine-1-carboxylic acid ethyl ester] | 163 nM | 1460 nM | 1420 nM | 1090 nM
10 | CN(C)C(=O)CCc1nc2cnc3[nH]ccc3c2n1C1CCCCC1 [Example 803, 3-(1-Cyclohexyl-1,6-dihydro-1,3,5,6-tetraaza-as-indacen-2-yl)-N,N-dimethyl-propionamide] | 16.1 nM | 44 nM | 25.7 nM | 76.8 nM
11 | N#CCCN1CCC(n2c(CC3CCOCC3)nc3cnc4[nH]ccc4c32)CC1 [Example 812, 3-{4-[2-(Tetrahydro-pyran-4-ylmethyl)-6H-1,3,5,6-tetraaza-as-indacen-1-yl]-piperidin-1-yl}-propionitrile] | 37.8 nM | 213 nM | 168 nM | 316 nM
12 | N#CCCN1CCC(n2c(CC3CCCO3)nc3cnc4[nH]ccc4c32)CC1 (centres unmarked) [Example 813, 3-{4-[2-(Tetrahydro-furan-2-ylmethyl)-6H-1,3,5,6-tetraaza-as-indacen-1-yl]-piperidin-1-yl}-propionitrile] | 21.1 nM | 43 nM | 39.9 nM | 365 nM
13 | CCc1nccn1CCc1nc2cnc3[nH]ccc3c2n1C1CCN(CCC#N)CC1 [Example 815, 3-(4-{2-[2-(2-Ethyl-imidazol-1-yl)-ethyl]-6H-1,3,5,6-tetraaza-as-indacen-1-yl}-piperidin-1-yl)-propionitrile] | 23.5 nM | 91.8 nM | 191 nM | 254 nM

These reach a lower Ki (JAK1). Values come first.

Row | Ki (JAK1) | Ki (JAK2) | Ki (JAK3) | Ki (TYK2) | SMILES
14 | 7.74 nM | 51.5 nM | 76.8 nM | 64.9 nM | O=C1CCCN1CCc1nc2cnc3[nH]ccc3c2n1C1CCCCC1 [Example 801, 1-[2-(1-Cyclohexyl-1,6-dihydro-1,3,5,6-tetraaza-as-indacen-2-yl)-ethyl]-pyrrolidin-2-one]
15 | 7.77 nM | 48.6 nM | 79.5 nM | 54.7 nM | CC(=O)N(C)CCc1nc2cnc3[nH]ccc3c2n1C1CCCCC1 [Example 802, N-[2-(1-Cyclohexyl-1,6-dihydro-1,3,5,6-tetraaza-as-indacen-2-yl)-ethyl]-N-methyl-acetamide]
16 | 3.78 nM | 34.7 nM | 15.9 nM | 257 nM | CCN1CCC(n2c(CCNC(C)=O)nc3cnc4[nH]ccc4c32)C(F)(F)C1 (centres unmarked) [Example 807, N-{2-[1-(1-Ethyl-3,3-difluoro-piperidin-4-yl)-1,6-dihydro-1,3,5,6-tetraaza-as-indacen-2-yl]-ethyl}-acetamide]
17 | 4.77 nM | 34.1 nM | 128 nM | 303 nM | CCN1CC[C@@H](n2c(CCNS(C)(=O)=O)nc3cnc4[nH]ccc4c32)[C@@H](F)C1 [Example 808, N-{2-[1-((3S,4R)-1-Ethyl-3-fluoro-piperidin-4-yl)-1,6-dihydro-1,3,5,6-tetraaza-as-indacen-2-yl]-ethyl}-methanesulfonamide]
18 | 5.67 nM | 46.6 nM | 162 nM | 381 nM | CCN1CC[C@@H](n2c(CCNS(=O)(=O)C3CC3)nc3cnc4[nH]ccc4c32)[C@@H](F)C1 [Example 809, Cyclopropanesulfonic acid {2-[1-((3S,4R)-1-ethyl-3-fluoro-piperidin-4-yl)-1,6-dihydro-1,3,5,6-tetraaza-as-indacen-2-yl]-ethyl}-amide]
19 | 5.72 nM | 44.7 nM | 181 nM | 385 nM | CCN1CC[C@@H](n2c(CCNS(=O)(=O)C(C)C)nc3cnc4[nH]ccc4c32)[C@@H](F)C1 [Example 810, Propane-2-sulfonic acid {2-[1-((3S,4R)-1-ethyl-3-fluoro-piperidin-4-yl)-1,6-dihydro-1,3,5,6-tetraaza-as-indacen-2-yl]-ethyl}-amide]
20 | 6.78 nM | 62.9 nM | 130 nM | 519 nM | CCN1CC[C@@H](n2c(CCNC(C)=O)nc3cnc4[nH]ccc4c32)[C@@H](F)C1 [Example 811, N-{2-[1-((3S,4R)-1-Ethyl-3-fluoro-piperidin-4-yl)-1,6-dihydro-1,3,5,6-tetraaza-as-indacen-2-yl]-ethyl}-acetamide]
21 | 11.2 nM | 88.4 nM | 90.7 nM | 580 nM | Cn1ccc(CCc2nc3cnc4[nH]ccc4c3n2C2CCN(CCC#N)CC2)n1 [Example 814, 3-(4-{2-[2-(1-Methyl-1H-pyrazol-3-yl)-ethyl]-6H-1,3,5,6-tetraaza-as-indacen-1-yl}-piperidin-1-yl)-propionitrile]
22 | 7.69 nM | 19.6 nM | 90.8 nM | 90.3 nM | CC(C)c1nccn1CCc1nc2cnc3[nH]ccc3c2n1C1CCN(CCC#N)CC1 [Example 816, 3-(4-{2-[2-(2-Isopropyl-imidazol-1-yl)-ethyl]-6H-1,3,5,6-tetraaza-as-indacen-1-yl}-piperidin-1-yl)-propionitrile]
23 | 8.58 nM | 43 nM | 63.7 nM | 207 nM | CC(F)(F)CCc1nc2cnc3[nH]ccc3c2n1C1CCN(CCC#N)CC1 [Example 817, 3-{4-[2-(3,3-Difluoro-butyl)-6H-1,3,5,6-tetraaza-as-indacen-1-yl]-piperidin-1-yl}-propionitrile]
24 | 9.45 nM | 383 nM | 117 nM | 1380 nM | C[C@@H](O)c1nc2cnc3[nH]ccc3c2n1C1CCN(Cc2cnn(C)c2)CC1 [Example 818, (R)-1-{1-[1-(1-Methyl-1H-pyrazol-4-ylmethyl)-piperidin-4-yl]-1,6-dihydro-1,3,5,6-tetraaza-as-indacen-2-yl}-ethanol]
25 | 10.9 nM | 61.8 nM | 44.9 nM | 161 nM | C[C@@H](O)c1nc2cnc3[nH]ccc3c2n1C1CCN(Cc2ccnn2C)CC1 [Example 819, (R)-1-{1-[1-(2-Methyl-2H-pyrazol-3-ylmethyl)-piperidin-4-yl]-1,6-dihydro-1,3,5,6-tetraaza-as-indacen-2-yl}-ethanol]
26 | 12 nM | 61 nM | 35.8 nM | 166 nM | CCn1nccc1CN1CCC(n2c([C@@H](C)O)nc3cnc4[nH]ccc4c32)CC1 [Example 820, (R)-1-{1-[1-(2-Ethyl-2H-pyrazol-3-ylmethyl)-piperidin-4-yl]-1,6-dihydro-1,3,5,6-tetraaza-as-indacen-2-yl}-ethanol]
